Measured values: PMC11434749, “In Vitro Interaction of Binuclear Copper Complexes with Liver Drug-Metabolizing Cytochromes P450” (Pharmaceuticals, 2024)

Experiments:
HLM CYP enzymes = assay: Spectral study (binding difference spectra) of the interaction with HLM CYP enzymes; design: species or system human; conditions: for Kd: HLM, CYP 1 µmol·L^−1 in 50 mmol·L^−1 potassium phosphate buffer pH 7.4, absorbance change at about 417 nm, room temperature, read-out: spectroscopic binding constant (KS); for mode of binding to HLM CYP enzymes (difference spectra): maximum at about 380 nm, minimum at about 417 nm (Type I binding spectra)
Excerpt: Spectral studies in the Soret region were used to detect the substrate-induced difference spectra of human liver microsomal (HLM) CYPs. […] The spectral change corresponds to the formation of a maximum formed at about 380 nm and a minimum at about 417 nm (Figure 2). The values of the corresponding spectroscopic binding constant (KS) for the tested compounds were 39.50 ± 10.06 µmol·L^−1 and 44.86 ± 9.88 µmol·L^−1, respectively. These values indicate the relatively specific binding of these complexes on CYPs.
Figure 2 Spectral determination of the interaction between tested complexes No. 5 (a) and No. 6 (b) and CYP in HLM. […] The concentration of CYP in microsomal preparation, 1 µmol·L^−1 in 50 mmol·L^−1 potassium phosphate buffer (pH 7.4).
The binding difference spectra of the interactions of complex No. 5 and complex No. 6 with microsomal CYP enzymes were followed according to established procedures. The cuvette contained HLM that was diluted to a final concentration of CYP 1 µmol·L^−1 in 50 mmol·L^−1 potassium phosphate buffer (pH 7.4). The tested compounds were dissolved in the same buffer, and the concentration ranges in experiments were 0–183 µmol·L^−1, obtained by diluting a 5 mmol·L^−1 stock solution. Spectra were recorded at room temperature by repetitive scanning between 300 and 700 nm at a scan speed of 200 nm/s. The baseline of the reference cuvette contained HLM diluted to the final concentration of CYP 1 µmol·L^−1 in 50 mmol·L^−1 potassium buffer (pH 7.4). Spectra were recorded on a Varian 4000 UV/VIS spectrophotometer (Varian, Palo Alto, CA, USA). The absorbance change at about 417 nm was plotted against the concentration of the tested compounds. Data were analyzed using the Sigma Plot v. 8.0 graphing software (Jandel Scientific, Chicago, IL, USA).

CYP2C8 = target: T1, CYP2C8 (Homo sapiens, UniProt P10632); assay: Inhibition of CYP2C8 activity (paclitaxel 6α-hydroxylation) in human liver microsomes; format: in vitro ADME; conditions: HLM, paclitaxel 50 µmol·L^−1, preincubation 30 min at 37 °C, Mean ± S.D.
T1 construct: Pooled human liver microsomes were obtained from Biopredic (Rennes, France); tissue Biopredic (Rennes, France); host or cells: pooled human liver microsomes, seventeen donors
T1 sequence (P10632 1-490): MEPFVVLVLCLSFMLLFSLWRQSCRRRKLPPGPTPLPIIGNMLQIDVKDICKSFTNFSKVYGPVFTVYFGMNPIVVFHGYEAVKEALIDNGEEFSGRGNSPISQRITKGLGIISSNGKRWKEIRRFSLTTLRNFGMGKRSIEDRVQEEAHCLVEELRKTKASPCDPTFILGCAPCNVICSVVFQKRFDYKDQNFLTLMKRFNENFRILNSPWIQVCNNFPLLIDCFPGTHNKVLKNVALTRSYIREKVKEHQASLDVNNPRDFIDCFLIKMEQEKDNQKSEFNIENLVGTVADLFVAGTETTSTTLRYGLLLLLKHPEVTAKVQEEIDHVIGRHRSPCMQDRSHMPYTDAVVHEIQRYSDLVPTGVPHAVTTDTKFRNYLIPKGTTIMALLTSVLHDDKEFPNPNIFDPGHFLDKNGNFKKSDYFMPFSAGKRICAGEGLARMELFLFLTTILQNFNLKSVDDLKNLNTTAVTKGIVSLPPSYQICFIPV
Protocol: (§1) The following enzyme assays were performed to determine the activities of specific CYP enzymes: CYP1A2, 7-ethoxyresorufin O-deethylation; CYP2A6, coumarin 7-hydroxylation; CYP2B6, 7-ethoxy-4-(trifluoromethyl) coumarin (EFC) O-deethylation; CYP2C8 paclitaxel 6α-hydroxylation; CYP2C9, diclofenac 4′-hydroxylation; CYP2C19, diazepam N-desmethylation; CYP2D6, bufuralol 1′-hydroxylation; CYP2E1, chlorzoxazone 6-hydroxylation; and CYP3A4/5, testosterone 6β-hydroxylation. […]
(§2) For the determination of metabolites formed from specific substrates, a Prominence LC-20A HPLC system (Shimadzu, Kyoto, Japan) with UV detection or fluorescence detection was used (see Table 2). […]
(§3) Initially, for each enzyme assay, a preliminary experiment was carried out to determine Km and Vmax to obtain the appropriate concentration of the specific substrates for the inhibition experiments (the substrate concentration was chosen in the range corresponding to the value of the Km for each particular reaction). Data were analyzed using the Sigma plot software, as mentioned above, with spectral studies. […] In all cases, the inhibition of individual CYP activities was evaluated by plotting the respective remaining activity against the inhibitor concentration.

CYP2A6 = target: T2, CYP2A6 (Homo sapiens, UniProt P11509); assay: Inhibition of CYP2A6 activity (coumarin 7-hydroxylation) in human liver microsomes; format: in vitro ADME; conditions: HLM, coumarin 15 µmol·L^−1, preincubation 30 min at 37 °C, Mean ± S.D.
T2 construct: Pooled human liver microsomes were obtained from Biopredic (Rennes, France); tissue Biopredic (Rennes, France); host or cells: pooled human liver microsomes, seventeen donors
T2 sequence (P11509 1-494): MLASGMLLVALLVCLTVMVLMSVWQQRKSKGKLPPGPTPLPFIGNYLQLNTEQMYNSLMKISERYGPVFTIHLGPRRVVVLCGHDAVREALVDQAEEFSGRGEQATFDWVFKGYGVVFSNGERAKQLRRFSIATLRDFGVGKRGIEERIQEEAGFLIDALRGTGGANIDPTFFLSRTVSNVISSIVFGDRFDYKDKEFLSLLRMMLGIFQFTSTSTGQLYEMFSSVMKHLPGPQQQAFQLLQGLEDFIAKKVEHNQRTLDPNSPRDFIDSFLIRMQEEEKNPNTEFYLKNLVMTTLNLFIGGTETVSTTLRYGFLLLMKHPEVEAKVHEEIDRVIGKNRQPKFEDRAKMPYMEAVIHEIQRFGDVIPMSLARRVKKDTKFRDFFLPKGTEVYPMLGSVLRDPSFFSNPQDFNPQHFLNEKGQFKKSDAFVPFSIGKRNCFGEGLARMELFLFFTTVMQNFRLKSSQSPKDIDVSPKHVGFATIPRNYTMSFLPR
Protocol: as §1, §2, §3

SMILES | Kd (HLM CYP enzymes) | mode of binding to HLM CYP enzymes (difference spectra) (HLM CYP enzymes) | IC50 (CYP2C8) | IC50 (CYP2A6)
CN(C)CCN(C)CCN(C)C.CN(C)CCN(C)CCN(C)C.O.O.O=C([O-])/C=C/C(=O)[O-].[Cu+2].[Cu+2].[O-][Cl+3]([O-])([O-])[O-].[O-][Cl+3]([O-])([O-])[O-] [Complex No. 5, [Cu2(μ-fu)(pmdien)2(H2O)2](ClO4)2] | 39.5 ± 10.1 µM | bind to HLM CYP enzymes as substrates | 3.66 ± 0.19 µM | 24.9 ± 0.25 µM
CN(C)CCN(C)CCN(C)C.CN(C)CCN(C)CCN(C)C.O.O.O=C([O-])CCSSCCC(=O)[O-].[Cu+2].[Cu+2].[O-][Cl+3]([O-])([O-])[O-].[O-][Cl+3]([O-])([O-])[O-] [Complex No. 6, [Cu2(μ-dtdp)(pmdien)2(H2O)2](ClO4)2] | 44.9 ± 9.88 µM | bind to HLM CYP enzymes as substrates | 3.4 ± 0.1 µM | 25.13 ± 0.13 µM
